{"source": "ChEMBL document CHEMBL5212743", "about": "“Selectivity Literature for EUbOPEN Chemogenomics Library wave 3” (2023)", "key": {"[1]": {"target": "T1, Aurora kinase C (Homo sapiens) (UniProt Q9UQB9)", "T1 sequence (whole entry)": "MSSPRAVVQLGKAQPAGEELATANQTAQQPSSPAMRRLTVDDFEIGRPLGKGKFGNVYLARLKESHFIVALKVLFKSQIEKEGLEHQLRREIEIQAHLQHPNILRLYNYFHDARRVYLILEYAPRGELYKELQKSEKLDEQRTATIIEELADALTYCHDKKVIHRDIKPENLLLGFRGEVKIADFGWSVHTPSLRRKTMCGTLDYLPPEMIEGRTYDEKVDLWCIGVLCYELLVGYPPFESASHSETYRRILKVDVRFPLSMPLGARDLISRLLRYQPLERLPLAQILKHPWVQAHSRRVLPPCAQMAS", "assay": "Selectivity interaction (KinomeScan (DiscoverX)) EUB0000262b AURKC", "settings": "at 1 µM"}, "[2]": {"target": "Peroxisome proliferator-activated receptor gamma (Homo sapiens) (UniProt P37231)", "sequence (P37231 whole entry)": "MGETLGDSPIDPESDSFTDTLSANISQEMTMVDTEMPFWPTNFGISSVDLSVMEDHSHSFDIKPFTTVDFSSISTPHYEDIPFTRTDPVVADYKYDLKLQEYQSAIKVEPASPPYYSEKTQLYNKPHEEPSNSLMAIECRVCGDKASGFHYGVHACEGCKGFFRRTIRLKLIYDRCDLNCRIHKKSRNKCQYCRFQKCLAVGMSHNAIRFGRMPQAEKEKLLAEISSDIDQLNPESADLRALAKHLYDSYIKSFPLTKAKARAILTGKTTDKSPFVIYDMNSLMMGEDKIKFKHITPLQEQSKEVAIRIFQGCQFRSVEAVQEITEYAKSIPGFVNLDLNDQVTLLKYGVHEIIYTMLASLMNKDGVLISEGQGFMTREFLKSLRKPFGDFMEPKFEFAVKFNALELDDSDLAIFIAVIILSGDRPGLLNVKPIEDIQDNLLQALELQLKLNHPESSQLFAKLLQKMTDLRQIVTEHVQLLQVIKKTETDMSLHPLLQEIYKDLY", "assay": "Selectivity interaction (Enzyme panel (Eurofins-Cerep)) EUB0000262b PPARG", "settings": "at 10 µM"}, "[3]": {"target": "Delta-type opioid receptor (Homo sapiens) (UniProt P41143)", "sequence (P41143 whole entry)": "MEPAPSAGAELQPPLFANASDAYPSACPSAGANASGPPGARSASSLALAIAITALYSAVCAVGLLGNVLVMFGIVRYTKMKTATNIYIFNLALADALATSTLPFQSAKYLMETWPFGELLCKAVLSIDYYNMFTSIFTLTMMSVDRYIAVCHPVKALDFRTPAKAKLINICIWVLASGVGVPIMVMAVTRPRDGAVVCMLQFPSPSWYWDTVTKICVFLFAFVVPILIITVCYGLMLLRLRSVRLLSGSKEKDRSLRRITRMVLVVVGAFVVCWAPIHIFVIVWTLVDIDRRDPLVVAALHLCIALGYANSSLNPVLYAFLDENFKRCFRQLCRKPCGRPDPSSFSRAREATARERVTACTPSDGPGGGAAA", "assay": "Selectivity interaction (CEREP panel (Eurofins, binding assay)) EUB0000262b OPRD1", "settings": "at 10 µM"}, "[4]": {"target": "T2, Amine oxidase [flavin-containing] A (Homo sapiens, UniProt P21397)", "T2 sequence (P21397 whole entry)": "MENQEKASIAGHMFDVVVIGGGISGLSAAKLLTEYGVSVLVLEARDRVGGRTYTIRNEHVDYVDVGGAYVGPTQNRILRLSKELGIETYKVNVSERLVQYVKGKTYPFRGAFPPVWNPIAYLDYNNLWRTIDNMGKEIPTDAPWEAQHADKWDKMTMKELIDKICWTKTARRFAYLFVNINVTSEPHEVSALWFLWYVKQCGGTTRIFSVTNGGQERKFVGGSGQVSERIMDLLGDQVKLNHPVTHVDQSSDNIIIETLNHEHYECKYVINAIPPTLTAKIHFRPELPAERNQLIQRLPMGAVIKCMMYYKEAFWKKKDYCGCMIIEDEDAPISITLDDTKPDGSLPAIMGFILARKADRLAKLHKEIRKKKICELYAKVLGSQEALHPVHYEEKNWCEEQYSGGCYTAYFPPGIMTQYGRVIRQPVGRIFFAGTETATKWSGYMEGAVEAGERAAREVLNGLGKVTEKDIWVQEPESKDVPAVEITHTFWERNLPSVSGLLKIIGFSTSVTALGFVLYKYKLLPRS", "assay": "Selectivity interaction (Enzyme panel (Eurofins-Cerep)) EUB0000262b MAOA", "settings": "at 10 µM"}, "[5]": {"target": "Peroxisome proliferator-activated receptor gamma (Homo sapiens) (UniProt P37231)", "assay": "Selectivity interaction (CEREP panel (Eurofins, binding assay)) EUB0000262b PPARG", "settings": "at 10 µM"}, "[6]": {"target": "T2, Amine oxidase [flavin-containing] A", "assay": "Selectivity interaction (CEREP panel (Eurofins, binding assay)) EUB0000262b MAOA", "settings": "at 10 µM"}, "[7]": {"target": "MAP/microtubule affinity-regulating kinase 3 (Homo sapiens) (UniProt P27448)", "sequence (P27448 whole entry, looked up)": "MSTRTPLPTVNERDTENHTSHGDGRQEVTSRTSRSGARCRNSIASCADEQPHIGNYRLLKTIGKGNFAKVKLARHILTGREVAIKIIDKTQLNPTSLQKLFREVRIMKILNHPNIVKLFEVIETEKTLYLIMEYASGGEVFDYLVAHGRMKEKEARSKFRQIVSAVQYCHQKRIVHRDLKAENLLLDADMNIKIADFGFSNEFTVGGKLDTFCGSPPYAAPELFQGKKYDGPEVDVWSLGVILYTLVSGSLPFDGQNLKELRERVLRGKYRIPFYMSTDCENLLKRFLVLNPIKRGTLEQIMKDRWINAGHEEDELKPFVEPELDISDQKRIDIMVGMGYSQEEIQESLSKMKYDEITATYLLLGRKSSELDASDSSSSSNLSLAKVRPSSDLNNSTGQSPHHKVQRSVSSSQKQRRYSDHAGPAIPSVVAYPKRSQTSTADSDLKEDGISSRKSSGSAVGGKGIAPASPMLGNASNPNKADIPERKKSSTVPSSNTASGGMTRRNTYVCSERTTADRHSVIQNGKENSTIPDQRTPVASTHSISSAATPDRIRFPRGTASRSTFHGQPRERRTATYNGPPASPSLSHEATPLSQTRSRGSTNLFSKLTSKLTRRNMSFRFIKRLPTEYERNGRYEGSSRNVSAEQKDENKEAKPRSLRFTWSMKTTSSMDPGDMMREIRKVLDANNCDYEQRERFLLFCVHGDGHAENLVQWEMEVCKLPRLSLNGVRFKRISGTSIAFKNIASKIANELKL", "assay": "Selectivity interaction (KinomeScan (DiscoverX)) EUB0000262b MARK3", "settings": "at 1 µM"}, "[8]": {"target": "T3, Adenosine receptor A3 (Homo sapiens) (UniProt P0DMS8)", "T3 sequence (whole entry)": "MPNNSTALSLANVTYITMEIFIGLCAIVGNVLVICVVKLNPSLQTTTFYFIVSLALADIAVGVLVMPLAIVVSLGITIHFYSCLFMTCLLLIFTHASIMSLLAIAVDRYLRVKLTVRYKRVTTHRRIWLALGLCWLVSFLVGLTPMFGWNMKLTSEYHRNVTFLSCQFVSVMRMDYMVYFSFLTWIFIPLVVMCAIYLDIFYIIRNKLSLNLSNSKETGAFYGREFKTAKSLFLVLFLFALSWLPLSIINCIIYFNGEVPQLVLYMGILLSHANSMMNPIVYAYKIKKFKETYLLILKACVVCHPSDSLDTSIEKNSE", "assay": "Selectivity interaction (Enzyme panel (Eurofins-Cerep)) EUB0000262b ADORA3", "settings": "at 10 µM"}, "Histamine H1 receptor [9]": {"target": "T4, Histamine H1 receptor (Homo sapiens, UniProt P35367)", "T4 sequence (P35367 whole entry)": "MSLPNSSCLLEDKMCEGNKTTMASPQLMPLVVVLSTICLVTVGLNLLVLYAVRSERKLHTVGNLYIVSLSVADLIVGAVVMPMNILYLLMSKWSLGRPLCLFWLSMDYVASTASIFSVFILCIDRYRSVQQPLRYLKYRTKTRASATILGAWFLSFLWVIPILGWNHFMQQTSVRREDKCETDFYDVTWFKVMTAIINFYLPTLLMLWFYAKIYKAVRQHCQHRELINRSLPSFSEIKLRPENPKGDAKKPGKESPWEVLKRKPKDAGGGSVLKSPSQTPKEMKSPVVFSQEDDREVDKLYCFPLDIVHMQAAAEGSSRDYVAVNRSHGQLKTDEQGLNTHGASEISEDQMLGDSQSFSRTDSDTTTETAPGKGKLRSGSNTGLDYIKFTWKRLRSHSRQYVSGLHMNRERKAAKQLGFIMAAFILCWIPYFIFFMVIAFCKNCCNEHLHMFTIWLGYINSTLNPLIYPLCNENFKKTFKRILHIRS", "assay": "Selectivity interaction (CEREP panel (Eurofins, binding assay)) EUB0000262b HRH1", "settings": "at 10 µM"}, "[10]": {"target": "T5, Gamma-aminobutyric acid receptor subunit alpha-1 (Homo sapiens, UniProt P14867)", "T5 sequence (P14867 whole entry)": "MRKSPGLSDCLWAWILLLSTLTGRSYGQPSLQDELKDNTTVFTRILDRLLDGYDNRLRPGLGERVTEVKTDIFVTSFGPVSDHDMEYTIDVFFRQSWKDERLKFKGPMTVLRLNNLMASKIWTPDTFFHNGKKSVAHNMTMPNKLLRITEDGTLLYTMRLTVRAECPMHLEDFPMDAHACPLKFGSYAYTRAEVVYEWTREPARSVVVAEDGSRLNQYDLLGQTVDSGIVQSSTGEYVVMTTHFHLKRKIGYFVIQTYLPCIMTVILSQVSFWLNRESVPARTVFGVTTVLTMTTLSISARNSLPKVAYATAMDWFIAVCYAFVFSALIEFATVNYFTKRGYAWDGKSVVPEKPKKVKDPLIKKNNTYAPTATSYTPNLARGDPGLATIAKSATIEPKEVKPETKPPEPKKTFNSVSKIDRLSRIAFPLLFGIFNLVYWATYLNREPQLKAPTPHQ", "assay": "Selectivity interaction (GPCR panel (PDSP screen)) EUB0000262b GABRA1"}, "[11]": {"target": "T3, Adenosine receptor A3 (Homo sapiens)", "assay": "Selectivity interaction (CEREP panel (Eurofins, binding assay)) EUB0000262b ADORA3", "settings": "at 10 µM"}, "[12]": {"target": "T6, Prostaglandin G/H synthase 2 (Homo sapiens) (UniProt P35354)", "T6 sequence (whole entry)": "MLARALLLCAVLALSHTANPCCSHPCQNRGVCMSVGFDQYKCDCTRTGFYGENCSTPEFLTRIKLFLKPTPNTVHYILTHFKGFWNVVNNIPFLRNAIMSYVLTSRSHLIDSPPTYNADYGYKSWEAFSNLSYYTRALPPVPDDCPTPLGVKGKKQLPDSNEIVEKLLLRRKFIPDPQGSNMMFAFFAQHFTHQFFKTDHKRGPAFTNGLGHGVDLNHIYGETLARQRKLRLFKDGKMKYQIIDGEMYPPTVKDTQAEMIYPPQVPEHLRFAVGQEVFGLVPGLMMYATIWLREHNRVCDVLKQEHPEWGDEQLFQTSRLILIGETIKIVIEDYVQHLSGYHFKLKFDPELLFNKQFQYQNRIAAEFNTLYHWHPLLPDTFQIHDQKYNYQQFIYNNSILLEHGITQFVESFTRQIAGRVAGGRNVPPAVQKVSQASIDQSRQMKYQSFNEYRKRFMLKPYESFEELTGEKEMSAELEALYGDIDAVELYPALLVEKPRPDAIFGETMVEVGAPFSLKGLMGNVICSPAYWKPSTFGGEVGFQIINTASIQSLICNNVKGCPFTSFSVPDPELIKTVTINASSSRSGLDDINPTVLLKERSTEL", "assay": "Selectivity interaction (CEREP panel (Eurofins, binding assay)) EUB0000262b PTGS2", "settings": "at 10 µM"}, "[13]": {"target": "Cholecystokinin receptor type A (Homo sapiens) (UniProt P32238)", "sequence (P32238 whole entry)": "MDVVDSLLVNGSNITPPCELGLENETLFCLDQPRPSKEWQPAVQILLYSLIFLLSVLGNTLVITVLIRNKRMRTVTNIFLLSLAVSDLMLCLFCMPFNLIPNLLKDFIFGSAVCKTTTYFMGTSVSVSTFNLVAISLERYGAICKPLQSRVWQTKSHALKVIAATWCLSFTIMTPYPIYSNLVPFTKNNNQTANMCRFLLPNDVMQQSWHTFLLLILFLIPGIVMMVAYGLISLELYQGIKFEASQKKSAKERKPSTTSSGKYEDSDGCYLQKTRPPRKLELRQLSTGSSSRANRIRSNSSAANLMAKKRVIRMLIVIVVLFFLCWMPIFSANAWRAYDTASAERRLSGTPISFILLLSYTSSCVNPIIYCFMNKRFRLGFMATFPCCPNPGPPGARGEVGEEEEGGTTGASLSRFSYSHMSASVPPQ", "assay": "Selectivity interaction (Enzyme panel (Eurofins-Cerep)) EUB0000262b CCKAR", "settings": "at 10 µM"}, "[14]": {"target": "Delta-type opioid receptor (Homo sapiens) (UniProt P41143)", "assay": "Selectivity interaction (Enzyme panel (Eurofins-Cerep)) EUB0000262b OPRD1", "settings": "at 10 µM"}, "[15]": {"target": "Urotensin-2 receptor (Homo sapiens) (UniProt Q9UKP6)", "sequence (Q9UKP6 whole entry)": "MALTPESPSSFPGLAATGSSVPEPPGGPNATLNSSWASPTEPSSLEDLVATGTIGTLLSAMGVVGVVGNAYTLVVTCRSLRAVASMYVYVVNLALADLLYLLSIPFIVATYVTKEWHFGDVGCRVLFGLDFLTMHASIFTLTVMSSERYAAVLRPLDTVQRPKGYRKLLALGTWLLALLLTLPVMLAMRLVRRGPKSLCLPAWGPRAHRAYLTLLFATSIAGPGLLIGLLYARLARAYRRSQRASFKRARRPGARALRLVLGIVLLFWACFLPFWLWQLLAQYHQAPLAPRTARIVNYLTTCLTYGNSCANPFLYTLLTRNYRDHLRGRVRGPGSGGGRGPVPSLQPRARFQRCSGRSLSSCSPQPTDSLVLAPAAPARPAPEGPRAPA", "assay": "Selectivity interaction (CEREP panel (Eurofins, binding assay)) EUB0000262b UTS2R", "settings": "at 10 µM"}, "[16]": {"target": "T6, Prostaglandin G/H synthase 2 (Homo sapiens)", "assay": "Selectivity interaction (Enzyme panel (Eurofins-Cerep)) EUB0000262b PTGS2", "settings": "at 10 µM"}, "[17]": {"target": "Urotensin-2 receptor (Homo sapiens) (UniProt Q9UKP6)", "assay": "Selectivity interaction (Enzyme panel (Eurofins-Cerep)) EUB0000262b UTS2R", "settings": "at 10 µM"}, "[18]": {"target": "Cholecystokinin receptor type A (Homo sapiens) (UniProt P32238)", "assay": "Selectivity interaction (CEREP panel (Eurofins, binding assay)) EUB0000262b CCKAR", "settings": "at 10 µM"}, "Histamine H1 receptor [19]": {"target": "T4, Histamine H1 receptor", "assay": "Selectivity interaction (Enzyme panel (Eurofins-Cerep)) EUB0000262b HRH1", "settings": "at 10 µM"}, "[20]": {"target": "Sodium-dependent noradrenaline transporter (Homo sapiens, UniProt P23975)", "sequence (P23975 whole entry)": "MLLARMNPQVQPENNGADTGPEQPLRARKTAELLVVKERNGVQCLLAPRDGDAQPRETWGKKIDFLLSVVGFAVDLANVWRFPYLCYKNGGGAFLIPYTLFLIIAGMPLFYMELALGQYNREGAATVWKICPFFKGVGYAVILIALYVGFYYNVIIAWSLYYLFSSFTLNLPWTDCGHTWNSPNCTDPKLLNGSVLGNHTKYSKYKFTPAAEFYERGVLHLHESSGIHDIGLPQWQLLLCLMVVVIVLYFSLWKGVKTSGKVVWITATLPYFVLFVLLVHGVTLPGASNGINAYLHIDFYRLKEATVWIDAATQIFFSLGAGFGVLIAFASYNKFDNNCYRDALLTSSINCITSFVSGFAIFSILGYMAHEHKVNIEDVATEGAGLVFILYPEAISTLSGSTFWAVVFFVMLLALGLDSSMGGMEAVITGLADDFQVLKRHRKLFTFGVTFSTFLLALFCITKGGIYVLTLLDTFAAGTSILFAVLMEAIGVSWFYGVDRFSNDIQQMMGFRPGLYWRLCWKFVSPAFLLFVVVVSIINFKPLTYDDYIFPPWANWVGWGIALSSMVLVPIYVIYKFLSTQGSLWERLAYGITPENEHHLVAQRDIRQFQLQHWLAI", "assay": "Selectivity interaction (CEREP panel (Eurofins, radioligand binding assay, enzymes, GPCRS, transporters, and ion channels)) EUB0000308b SLC6A2", "settings": "at 10 µM"}, "[21]": {"target": "T7, Serine/threonine-protein kinase ULK2 (Homo sapiens) (UniProt Q8IYT8)", "T7 sequence (whole entry)": "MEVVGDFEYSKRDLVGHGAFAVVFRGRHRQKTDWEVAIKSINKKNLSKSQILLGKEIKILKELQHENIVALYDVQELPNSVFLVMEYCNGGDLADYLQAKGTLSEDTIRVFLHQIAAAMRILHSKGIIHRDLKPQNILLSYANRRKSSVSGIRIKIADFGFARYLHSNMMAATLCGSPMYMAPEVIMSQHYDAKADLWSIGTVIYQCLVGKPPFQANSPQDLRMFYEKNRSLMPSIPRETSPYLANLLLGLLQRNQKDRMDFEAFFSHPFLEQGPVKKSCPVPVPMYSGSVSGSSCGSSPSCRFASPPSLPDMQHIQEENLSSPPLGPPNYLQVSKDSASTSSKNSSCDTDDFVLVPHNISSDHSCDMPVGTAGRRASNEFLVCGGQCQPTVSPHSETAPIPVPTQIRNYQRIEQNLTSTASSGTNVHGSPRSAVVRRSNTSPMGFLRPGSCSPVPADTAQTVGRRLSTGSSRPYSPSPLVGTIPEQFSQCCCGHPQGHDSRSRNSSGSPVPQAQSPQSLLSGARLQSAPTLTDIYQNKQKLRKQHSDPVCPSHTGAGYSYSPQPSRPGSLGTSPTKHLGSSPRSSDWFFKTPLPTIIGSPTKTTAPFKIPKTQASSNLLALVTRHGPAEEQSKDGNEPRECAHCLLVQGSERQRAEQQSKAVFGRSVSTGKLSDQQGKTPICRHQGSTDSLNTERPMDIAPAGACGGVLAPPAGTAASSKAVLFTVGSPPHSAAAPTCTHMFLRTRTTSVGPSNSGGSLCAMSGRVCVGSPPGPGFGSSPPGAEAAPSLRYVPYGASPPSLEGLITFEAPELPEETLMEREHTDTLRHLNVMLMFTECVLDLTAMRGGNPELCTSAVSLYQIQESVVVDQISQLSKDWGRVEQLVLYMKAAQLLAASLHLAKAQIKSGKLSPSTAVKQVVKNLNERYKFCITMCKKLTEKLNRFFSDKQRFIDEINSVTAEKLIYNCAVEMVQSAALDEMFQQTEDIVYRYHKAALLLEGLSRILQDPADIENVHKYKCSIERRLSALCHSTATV", "assay": "Selectivity interaction (KinomeScan (DiscoverX)) EUB0000308b ULK2", "settings": "at 1 µM"}, "[22]": {"target": "Sigma non-opioid intracellular receptor 1 (Homo sapiens, UniProt Q99720)", "sequence (Q99720 whole entry)": "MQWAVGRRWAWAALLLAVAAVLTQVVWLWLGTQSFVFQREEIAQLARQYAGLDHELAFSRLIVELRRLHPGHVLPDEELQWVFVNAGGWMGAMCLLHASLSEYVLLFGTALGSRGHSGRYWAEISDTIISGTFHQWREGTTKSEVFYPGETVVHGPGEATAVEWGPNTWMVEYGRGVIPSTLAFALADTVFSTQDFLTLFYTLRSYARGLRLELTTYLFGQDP", "assay": "Selectivity interaction (GPCR panel (PDSP screen)) EUB0000308b SIGMAR1"}, "[23]": {"target": "Melatonin receptor type 1A (Homo sapiens) (UniProt P48039)", "sequence (P48039 whole entry)": "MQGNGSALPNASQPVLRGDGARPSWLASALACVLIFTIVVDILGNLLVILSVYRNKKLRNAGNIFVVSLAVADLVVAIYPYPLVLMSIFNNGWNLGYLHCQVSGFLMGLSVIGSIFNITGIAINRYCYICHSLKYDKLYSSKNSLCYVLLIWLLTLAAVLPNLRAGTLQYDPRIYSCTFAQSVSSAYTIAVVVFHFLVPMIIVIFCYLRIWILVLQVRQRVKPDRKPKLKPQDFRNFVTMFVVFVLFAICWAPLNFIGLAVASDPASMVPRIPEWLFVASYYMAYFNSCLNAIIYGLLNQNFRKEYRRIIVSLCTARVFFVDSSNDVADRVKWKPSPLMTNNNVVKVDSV", "assay": "Selectivity interaction (CEREP panel (Eurofins, radioligand binding assay, enzymes, GPCRS, transporters, and ion channels)) EUB0000308b MTNR1A", "settings": "at 10 µM"}, "[24]": {"target": "Sodium-dependent dopamine transporter (Homo sapiens, UniProt Q01959)", "assay": "Selectivity interaction (CEREP panel (Eurofins, radioligand binding assay, enzymes, GPCRS, transporters, and ion channels)) EUB0000308b SLC6A3", "settings": "at 10 µM"}}}
{"smiles": "CN(C)CC#Cc1ccc(OCCCc2sc(N3CCc4cccc(C(=O)Nc5nc6ccccc6s5)c4C3)nc2C(=O)O)c(F)c1", "note": "[A-1155463]", "values": [{"measurement": "% of control", "setting": "[1]", "value": 9, "unit": "%"}, {"measurement": "% of inhibition", "setting": "[2]", "value": 99.1, "unit": "%"}, {"measurement": "% of inhibition", "setting": "[3]", "value": 77.9, "unit": "%"}, {"measurement": "% of inhibition", "setting": "[4]", "value": 74.5, "unit": "%"}, {"measurement": "% of inhibition", "setting": "[5]", "value": 99.1, "unit": "%"}, {"measurement": "% of inhibition", "setting": "[6]", "value": 74.5, "unit": "%"}, {"measurement": "% of control", "setting": "[7]", "value": 38, "unit": "%"}, {"measurement": "% of inhibition", "setting": "[8]", "value": 71.6, "unit": "%"}, {"measurement": "% of inhibition", "setting": "Histamine H1 receptor [9]", "value": 69.2, "unit": "%"}, {"measurement": "Ki", "setting": "[10]", "value": 794, "unit": "nM"}, {"measurement": "% of inhibition", "setting": "[11]", "value": 71.6, "unit": "%"}, {"measurement": "% of inhibition", "setting": "[12]", "value": 62.2, "unit": "%"}, {"measurement": "% of inhibition", "setting": "[13]", "value": 98.9, "unit": "%"}, {"measurement": "% of inhibition", "setting": "[14]", "value": 77.9, "unit": "%"}, {"measurement": "% of inhibition", "setting": "[15]", "value": 94.9, "unit": "%"}, {"measurement": "% of inhibition", "setting": "[16]", "value": 62.2, "unit": "%"}, {"measurement": "% of inhibition", "setting": "[17]", "value": 94.9, "unit": "%"}, {"measurement": "% of inhibition", "setting": "[18]", "value": 98.9, "unit": "%"}, {"measurement": "% of inhibition", "setting": "Histamine H1 receptor [19]", "value": 69.2, "unit": "%"}]}
{"smiles": "Clc1cccc(-c2nnnn2Cc2cccnc2)c1Cl", "values": [{"measurement": "% of inhibition", "setting": "[20]", "value": 32, "unit": "%"}, {"measurement": "% of control", "setting": "[21]", "value": 46, "unit": "%"}, {"measurement": "Ki", "setting": "[22]", "value": 505, "unit": "nM"}, {"measurement": "% of inhibition", "setting": "[23]", "value": 31, "unit": "%"}, {"measurement": "% of inhibition", "setting": "[24]", "value": 43, "unit": "%"}]}
